The values below come from PubChem BioAssay (NCI).

Experiment in all cases: DTP human tumour cell line panel, 48 h
Experiment [1] deals with SNB-19 CNS.
In experiment [2] the test system is HT29 colon.
The test system of experiment [3] is T-47D breast.
The subject of experiment [4] is SK-MEL-5 melanoma.
For experiment [5], the system named is SK-MEL-28 melanoma.
Experiment [6] concerns HS 578T breast.
For experiment [7], the system named is M14 melanoma.
For experiment [8], the system named is U251 CNS.

Each structure is given as a SMILES string. Where “and” joins values, the source holds several entries; their conditions need not be identical. Identical values can stand only once.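 All cell lines were grown in 96-well plates and treated with compound for 48 hours. At the GI50, growth is halved. At the TGI there is no net growth.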 Some results are limits rather than exact numbers.

In general, GI50 refers to the concentration at which growth is held to half of that of the control. As a reminder, the TGI is the concentration at which net growth stops. Lower therefore signals more potent growth arrest.

Turning to `Oc1ccc(-c2[nH]c3ccccc3c2-c2nc3ccccc3o2)cc1`, the GI50 in experiment [1] was 6.77 µM; in experiment [2], 3.65 µM; in experiment [3], 3.08 µM; in experiment [4], 2.16 µM; in experiment [5] it was 4.83 µM; in experiment [6] it was 2.47 µM. The GI50 in experiment [7] is 3.26 µM; in experiment [8], 2.86 µM. Besides, the TGI in experiment [1] is 22.1 µM; in experiment [2], 11.5 µM; in experiment [3] it was 15.4 µM; in experiment [4], 7.8 µM; in experiment [5], 17.9 µM; in experiment [6], 18.4 µM. For the same compound, the TGI in experiment [7] came to 13.8 µM; in experiment [8] it was 11.6 µM.

Regarding `Cc1ccccc1CNc1c2ccccc2nc2ccccc12`, the GI50 was 3.27 µM in experiment [1]; 1.97 µM in experiment [2]; 2.08 µM in experiment [3]; 1.69 µM in experiment [4]; 2.15 µM in experiment [5]; 2.34 µM in experiment [6]. Besides, the GI50 was 1.51 µM in experiment [7] and 2.91 µM in experiment [8]. The TGI turned out to be 13.7 µM in experiment [1]; 10 µM in experiment [2]; 5.93 µM in experiment [3]; 3.05 µM in experiment [4]; 5.02 µM in experiment [5]; 5.99 µM in experiment [6]. The TGI in experiment [7] stood at 3.2 µM; in experiment [8], 11.4 µM.

In the case of `CC(C)C/C(=N\NC(=O)c1ccncc1)c1cc(Cl)ccc1O`, the GI50 in experiment [1] was 1.66 µM; in experiment [2] it was 0.441 µM; in experiment [3], 0.584 µM; in experiment [4], 0.562 µM; in experiment [5] it was 2.61 µM; in experiment [6], 14.8 µM. Further, the GI50 in experiment [7] was 0.627 µM; in experiment [8], 0.303 µM. Further, the TGI in experiment [1] is over 100 µM; in experiment [2], over 100 µM; in experiment [3], 33.3 µM; in experiment [4], 2.53 µM; in experiment [5], over 69.4 µM; in experiment [6], over 87.1 µM. The figures for the TGI in experiment [7] and in experiment [8] were 13.3 µM and over 72.1 µM, respectively.

Turning to `Cc1cn2c(/C=C3/C(=O)Nc4ccc(C(=O)O)cc43)c(C)nc2s1`, the GI50 in experiment [1], in experiment [2], in experiment [3], in experiment [4], in experiment [5] and in experiment [6] was over 100 µM in each case. Further, the GI50 in experiment [7] and in experiment [8] was over 100 µM throughout. Also, the TGI in experiment [1], in experiment [2], in experiment [3], in experiment [4], in experiment [5] and in experiment [6] was over 100 µM throughout. Further, the TGI in experiment [7] and in experiment [8] was over 100 µM each time.

With `Cc1nn2c(-c3nc4cc(Cl)c(Cl)cc4[nH]3)c(-c3ccc(F)cc3)nc2s1`, the GI50 was 5.18 µM in experiment [1]; 1.91 µM in experiment [2]; 1.95 µM in experiment [3]; 5.86 µM in experiment [4]; 7.4 µM in experiment [5]; 2.78 µM in experiment [6]. The GI50 in experiment [7] is 5.94 µM; in experiment [8] it was 2.56 µM. In addition, the TGI in experiment [1] was over 76.8 µM; in experiment [2], over 100 µM; in experiment [3] it was 14.5 µM; in experiment [4] it was over 100 µM; in experiment [5], over 100 µM; in experiment [6], over 29.6 µM. For the same compound, the TGI is over 100 µM in experiment [7] and 10.5 µM in experiment [8].

Regarding `CCOC(=O)C1=C(C)N(Cc2ccc(Cl)cc2Cl)[C@]2(C#N)C(O)=C(Cl)C(Cl)=C(O)[C@]12C#N`, the GI50 in experiment [1] was 92.8 µM; in experiment [2], over 100 µM; in experiment [3] it was 31.9 µM; in experiment [4] it was over 100 µM; in experiment [5], over 100 µM; in experiment [6], over 100 µM. Also, the figures for the GI50 in experiment [7] and in experiment [8] were over 100 µM and 44.8 µM, respectively. For the same compound, the TGI is over 100 µM in experiment [1]; over 100 µM in experiment [2]; 78.4 µM in experiment [3]; over 100 µM in experiment [4]; over 100 µM in experiment [5]; over 100 µM in experiment [6]. In addition, the TGI in experiment [7] and in experiment [8] was over 100 µM each time.

For the compound `Nc1c(C(=O)Nc2ccccn2)sc2nc3c(cc12)CCCCCC3`, the GI50 in experiment [1] was 1.22 µM; in experiment [2], 0.36 µM; in experiment [3], 2.09 µM; in experiment [4], 0.906 µM; in experiment [5], 1.63 µM; in experiment [6], 0.935 µM. The results for the GI50 in experiment [7] and in experiment [8] were 0.295 µM and 0.97 µM, respectively. Further, the TGI turned out to be 13.8 µM in experiment [1]; 5.67 µM in experiment [2]; 34.6 µM in experiment [3]; 7.22 µM in experiment [4]; 19.6 µM in experiment [5]; 12.4 µM in experiment [6]. In addition, the TGI in experiment [7] is 3.05 µM; in experiment [8], 9.07 µM.

For the compound `CN(C)c1ccc2c(c1)OC(N)=C(C#N)C2c1ccc2c(c1)CCCN2C` (stereo unspecified), the GI50 was 4.26 µM in experiment [1]; 2.62 µM in experiment [2]; 11.7 µM in experiment [3]; 0.733 µM in experiment [4]; 11 µM in experiment [5]; 2.13 µM in experiment [6]. Also, the GI50 in experiment [7] is 1.29 µM; in experiment [8] it was 2.6 µM. Also, the TGI in experiment [1] was over 100 µM; in experiment [2] it was 8.23 µM; in experiment [3], 51.6 µM; in experiment [4] it was 12.8 µM; in experiment [5] it was 86.3 µM; in experiment [6], over 100 µM. The TGI in experiment [7] worked out at 18.5 µM; in experiment [8], 21.9 µM.

For `N#Cc1cccc(C2C3=C(COC3=O)N(CCO)c3cc4c(cc32)CCC4)c1` (stereo unspecified), the GI50 in experiment [1] was 0.18 µM; in experiment [2], 0.16 µM; in experiment [3], 0.271 µM; in experiment [4] it was 0.146 µM; in experiment [5], 0.437 µM; in experiment [6] it was 0.141 µM. The GI50 in experiment [7] was 0.0832 µM; in experiment [8] it was 0.196 µM. Besides, the TGI in experiment [1] was over 50 µM; in experiment [2], over 18.8 µM; in experiment [3], over 50 µM; in experiment [4] it was 2.87 µM; in experiment [5], over 50 µM; in experiment [6] it was over 13.5 µM. In addition, the TGI is 0.293 µM in experiment [7] and over 50 µM in experiment [8].

`O=C(Nc1ccc(Cl)c(C(F)(F)F)c1)C(=O)c1c(O)c2ccccc2oc1=O`: the concentration for total growth inhibition (TGI) in experiment [1], in experiment [2], in experiment [3], in experiment [4], in experiment [5] and in experiment [6] was over 100 µM throughout. The TGI in experiment [7] and in experiment [8] was over 100 µM each time.

Regarding `CCN(CC)C(=O)CCCCCn1c2ccccc2c2c3c(c4c5ccccc5[nH]c4c21)C(=O)N(O)C3=O`, the GI50 is 4.7 µM in experiment [1]; 2.22 µM in experiment [2]; 4.12 µM in experiment [3]; 2 µM in experiment [4]; 5.38 µM in experiment [5]; 5.05 µM in experiment [6]. Moreover, the GI50 in experiment [7] is 4.49 µM; in experiment [8], 1.96 µM. The TGI is over 100 µM in experiment [1]; 4.44 µM in experiment [2]; 52.1 µM in experiment [3]; 5.02 µM in experiment [4]; over 100 µM in experiment [5]; over 100 µM in experiment [6]. Besides, the TGI was 39.3 µM in experiment [7] and 3.78 µM in experiment [8].

For the compound `Nc1ccn([C@@H]2S[C@H](CO)[C@@H](O)[C@@H]2F)c(=O)n1`, the GI50 in experiment [1] is 0.0581 µM; in experiment [2], 0.178 µM; in experiment [3], 1.35 µM; in experiment [4], 0.178 µM; in experiment [5], over 100 µM; in experiment [6], over 100 µM. Moreover, the results for the GI50 in experiment [7] and in experiment [8] were 0.0616 µM and 0.367 µM, respectively. For the same compound, the concentration for total growth inhibition (TGI) in experiment [1], in experiment [2], in experiment [3], in experiment [4], in experiment [5] and in experiment [6] was over 100 µM in each case. In addition, the TGI is 0.842 µM in experiment [7] and over 100 µM in experiment [8].

Take `CC/C(=C(/c1ccc(/C=C/C(=O)O)cc1)c1ccc2[nH]ncc2c1)c1ccc(F)cc1Cl`: the GI50 in experiment [1] is 12.9 µM; in experiment [2], 13.3 µM; in experiment [3] it was 0.141 µM; in experiment [4], 8.35 µM; in experiment [5] it was 7.25 µM; in experiment [6], 8.63 µM. In addition, the GI50 is 7.84 µM in experiment [7] and 9.44 µM in experiment [8]. Moreover, the TGI was determined as 31.2 µM in experiment [1]; 32.4 µM in experiment [2]; 26.9 µM in experiment [3]; 21.4 µM in experiment [4]; 22.2 µM in experiment [5]; 38.7 µM in experiment [6]. The total growth inhibition concentration (TGI) was found to be 27.1 µM in experiment [7] and 23.5 µM in experiment [8].

For `N=C(N)c1ccc(OCCCCCOc2ccc(C(=N)N)cc2)cc1`, the GI50 in experiment [1] was 2.79 µM; in experiment [2], 5.05 µM and 15.8 µM and 35.5 µM; in experiment [3] it was 1.14 µM; in experiment [4] it was 1.02 µM and 2.29 µM and 10.1 µM; in experiment [5], 5.46 µM; in experiment [6], 7.64 µM. For the same compound, the GI50 in experiment [7] was 5.63 µM; in experiment [8] it was 2.79 µM. Also, the TGI in experiment [1] was 24.5 µM and 54.6 µM and 32.3 µM; in experiment [2], > 50 µM and 60.4 µM and > 100 µM; in experiment [3], 13.3 µM and 37.7 µM and > 100 µM; in experiment [4], 3.33 µM and 11.7 µM and 29.5 µM; in experiment [5], 12.3 µM and 21.9 µM and 49 µM; in experiment [6] it was 32.2 µM and 33 µM and 38.5 µM. For the same compound, the TGI was 17.2 µM and 31.8 µM and 31.9 µM in experiment [7]; 13.2 µM and 22.5 µM and 34.5 µM in experiment [8].
